Source: patent US12083131B2 (priority 2014, dated 2024)

How the values were obtained:
TBI = assay: Treatment of subjects with TBI at the starting dose; conditions: starting dose (29 μg/kg/hr), 11 subjects with TBI
[1] = Other clinical studies and experience to date with intravenous allopregnanolone; conditions: all AEs reported to date
essential tremor = assay: Clinical trial of allopregnanolone injection in essential tremor (Stage One placebo-controlled crossover, low-dose; Stage Two open-label, high-dose)
SRSE = assay: Continuous infusion allopregnanolone under emergency-use INDs for SRSE
[2] = tested on: severe postpartum depression (PPD); assay: Clinical study of allopregnanolone injection in adult female patients with severe postpartum depression
[3] = in vivo; cited from earlier work

SMILES	SAEs at the starting dose (TBI)	AEs reported to date [1]	Tolerability of the maintenance dose (essential tremor; 86 mcg/kg/hour, Stage One)	Adverse events reported (essential tremor; Stage One, arms not distinguished, one case each of phlebitis, somnolence, abnormal dreams, back pain, nasal congestion, headache, fatigue, nausea, two cases of dizziness)	Sedation scores versus placebo (essential tremor; conclusion of Stage One)	Measures of activity in essential tremor (accelerometer and TETRAS scores) versus placebo (essential tremor; conclusion of Stage One, maintenance dose 86 mcg/kg/hour)	Drug-related SAEs at the target/maximum level of exposure (SRSE; 150 nM exposure, 6 subjects with SRSE, continuous infusion)	Drug-related serious adverse events at maintenance dose (SRSE; 150 mcg/kg/hour, six subjects with SRSE)	Response (relief from symptoms) after treatment ([2]; after treatment)	Clinical Global Impression-Improvement (CGI-I) scale ([2]; all four patients)	Remission as measured by HAM-D during the treatment period ([2]; all four patients)	Tolerability ([2]; all patients, on therapy or during the 30-day follow-up period)	Time to improvement of symptoms after treatment ([2]; four patients (e.g., within 24 hours, within 12 hours after treatment))	Mean HAM-D score at baseline ([2]; four patients, baseline, >24.0 is severe)	Mean HAM-D score by the end of the treatment period ([2]; four patients, end of treatment period, below 7.0 is symptom-free)	Time to improvement in depression after administration ([2]; four women with severe PPD) [h]	Improvement in depression, number of women ([2]; women with severe PPD, intravenous administration)	Exposure of breast-feeding infant [3]
CC(=O)[C@H]1CC[C@H]2[C@@H]3CC[C@H]4C[C@H](O)CC[C@]4(C)[C@H]3CC[C@]12C [allopregnanolone, 3 alpha-hydroxy-5 alpha-pregnan-20-one]	no SAEs reported	mild and non-serious	good tolerability	10	no clear difference	no clear difference	no drug-related SAEs reported	without any drug-related serious adverse events	sustained	consistent improvement	rapidly achieved remission	well-tolerated	one	26.5	1.8	≤ 24	four of four	–
Cc1ncc2n1-c1ccc(Cl)cc1C(c1ccccc1F)=NC2 [midazolam]	–	–	–	–	–	–	–	–	–	–	–	–	–	–	–	–	–	less than 0.1 % of the maternal dose
CC(C)c1cccc(C(C)C)c1O [propofol]	–	–	–	–	–	–	–	–	–	–	–	–	–	–	–	–	–	less than 0.1 % of the maternal dose
